Measured values as given in patent US10898475B2, “Bach1 inhibitors in combination with Nrf2 activators and pharmaceutical compositions thereof” (vTv Therapeutics LLC, priority 2014, dated 2021).

Tested on: HMOX1 in Normal Human Lung Fibroblasts (NHLF)
Test: HMOX1 Protein Expression (immunostaining, fold induction or % positive cells over DMSO)
Settings: for Hill slope of DMF dose response curves in Table 2: % Positive HMOX; for combination effect in terms of the % HMOX positive cells: combination with DMF at concentrations below their maximum effect (Table 2); for change of Hill slope of the DMF dose response curve (FIG. 5): upon increasing amounts of the Bach1 Inhibitor
Experimental: Normal Human Lung Fibroblasts (NHLF) obtained from Lonza were cultured in T-225 flasks using conditions recommended by the vendor (FGM-2 medium supplemented with 2% fetal bovine serum (FBS), fibroblast growth factor (hFGF-B) 0.5 mL, insulin 0.5 mL, and gentamicin/amphotericin-B 0.5 mL at 37° C. in a humidified atmosphere of 5% CO2).
For assays, cell were thawed and placed into culture in T225 flasks, grown to be 80% confluent, and harvested as described by the vendor. NHLF cells (2.5×10^4 cells per well) were plated in 384 well optilux tissue culture (BD) plates and incubated overnight in media prior to exposure to compound. Cells were incubated with DMSO or various combinations of either an Nrf2 Activator (DMF (dimethyl fumarate)/CDDO-Me) or a Bach1 Inhibitor for 16-18 hr. Cells were then fixed and permeabilized prior to incubation with HMOX1 antibody (abcam; 1:300 dilution in 1% BSA in PBS) for 1 hour. Cells were then washed and incubated with a solution of fluorescently-coupled goat anti-mouse antibody (Alexa 488 1:400 dilution Invitrogen) and Hoechst nuclear stain (1:2000; Invitrogen) in PBS containing 1% BSA for 1 hr. Immunostaining was detected using a GE InCell 2000 instrument at the following wavelengths: Hoechst Ex/Em 360/535 and Alexa 488 Ex/Em 480/535. Results were analyzed using GE InCell Analyzer software and represented as the increase fold of HMOX1 induction (Fold induction/FI) or the percentage of HMOX1 positive (% positive) cells over DMSO.

COCCNC(=O)c1cnc2c(c1)nc(Nc1nc3ccc(OC(F)(F)F)cc3s1)n2C [HPP-B, 3-Methyl-2-(6-trifluoromethoxy-benzothiazol-2-ylamino)-3H-imidazo[4,5-b]pyridine-6-carboxylic acid (2-methoxy-ethyl)-amide]
Hill slope of DMF dose response curves in Table 2 (Bach1 Inhibitor Conc. 0.019 uM): 2.14
Hill slope of DMF dose response curves in Table 2 (Bach1 Inhibitor Conc. 0.039 uM): 1.87
Hill slope of DMF dose response curves in Table 2 (Bach1 Inhibitor Conc. 0.078 uM): 1.25
Hill slope of DMF dose response curves in Table 2 (Bach1 Inhibitor Conc. 0.156 uM): 1.12
% Cells Positive HMOX (Cpd. 0.019 uM, DMF 0 uM): 2.31%
Fold Induction of HMOX (Cpd. 0.019 uM, DMF 0 uM): 1.24 fold
% Cells Positive HMOX (Cpd. 0.019 uM, DMF 0.03 uM): 1.80%
Fold Induction of HMOX (Cpd. 0.019 uM, DMF 0.03 uM): 1.17 fold
% Cells Positive HMOX (Cpd. 0.019 uM, DMF 0.1 uM): 2.55%
Fold Induction of HMOX (Cpd. 0.019 uM, DMF 0.1 uM): 1.13 fold
% Cells Positive HMOX (Cpd. 0.019 uM, DMF 0.3 uM): 8.27%
Fold Induction of HMOX (Cpd. 0.019 uM, DMF 0.3 uM): 1.43 fold
% Cells Positive HMOX (Cpd. 0.019 uM, DMF 1 uM): 7.52%
Fold Induction of HMOX (Cpd. 0.019 uM, DMF 1 uM): 1.57 fold
% Cells Positive HMOX (Cpd. 0.019 uM, DMF 3 uM): 54.65%
Fold Induction of HMOX (Cpd. 0.019 uM, DMF 3 uM): 2.98 fold
% Cells Positive HMOX (Cpd. 0.019 uM, DMF 10 uM): 92.63%
Fold Induction of HMOX (Cpd. 0.019 uM, DMF 10 uM): 4.94 fold
% Cells Positive HMOX (Cpd. 0.019 uM, DMF 30 uM): 84.93%
Fold Induction of HMOX (Cpd. 0.019 uM, DMF 30 uM): 4.23 fold
% Cells Positive HMOX (Cpd. 0.039 uM, DMF 0 uM): 5.30%
Fold Induction of HMOX (Cpd. 0.039 uM, DMF 0 uM): 1.45 fold
% Cells Positive HMOX (Cpd. 0.039 uM, DMF 0.03 uM): 1.53%
Fold Induction of HMOX (Cpd. 0.039 uM, DMF 0.03 uM): 1.07 fold
% Cells Positive HMOX (Cpd. 0.039 uM, DMF 0.1 uM): 2.54%
Fold Induction of HMOX (Cpd. 0.039 uM, DMF 0.1 uM): 1.08 fold
% Cells Positive HMOX (Cpd. 0.039 uM, DMF 0.3 uM): 13.04%
Fold Induction of HMOX (Cpd. 0.039 uM, DMF 0.3 uM): 1.59 fold
% Cells Positive HMOX (Cpd. 0.039 uM, DMF 1 uM): 23.13%
Fold Induction of HMOX (Cpd. 0.039 uM, DMF 1 uM): 1.97 fold
% Cells Positive HMOX (Cpd. 0.039 uM, DMF 3 uM): 75.79%
Fold Induction of HMOX (Cpd. 0.039 uM, DMF 3 uM): 2.84 fold
% Cells Positive HMOX (Cpd. 0.039 uM, DMF 10 uM): 91.99%
Fold Induction of HMOX (Cpd. 0.039 uM, DMF 10 uM): 4.86 fold
% Cells Positive HMOX (Cpd. 0.039 uM, DMF 30 uM): 87.54%
Fold Induction of HMOX (Cpd. 0.039 uM, DMF 30 uM): 4.82 fold
% Cells Positive HMOX (Cpd. 0.078 uM, DMF 0 uM): 8.23%
Fold Induction of HMOX (Cpd. 0.078 uM, DMF 0 uM): 1.46 fold
% Cells Positive HMOX (Cpd. 0.078 uM, DMF 0.03 uM): 1.72%
Fold Induction of HMOX (Cpd. 0.078 uM, DMF 0.03 uM): 1.12 fold
% Cells Positive HMOX (Cpd. 0.078 uM, DMF 0.1 uM): 7.05%
Fold Induction of HMOX (Cpd. 0.078 uM, DMF 0.1 uM): 1.21 fold
% Cells Positive HMOX (Cpd. 0.078 uM, DMF 0.3 uM): 10.31%
Fold Induction of HMOX (Cpd. 0.078 uM, DMF 0.3 uM): 1.43 fold
% Cells Positive HMOX (Cpd. 0.078 uM, DMF 1 uM): 29.42%
Fold Induction of HMOX (Cpd. 0.078 uM, DMF 1 uM): 2.29 fold
% Cells Positive HMOX (Cpd. 0.078 uM, DMF 3 uM): 55.22%
Fold Induction of HMOX (Cpd. 0.078 uM, DMF 3 uM): 3.12 fold
% Cells Positive HMOX (Cpd. 0.078 uM, DMF 10 uM): 94.55%
Fold Induction of HMOX (Cpd. 0.078 uM, DMF 10 uM): 5.06 fold
% Cells Positive HMOX (Cpd. 0.078 uM, DMF 30 uM): 86.84%
Fold Induction of HMOX (Cpd. 0.078 uM, DMF 30 uM): 4.52 fold
% Cells Positive HMOX (Cpd. 0.156 uM, DMF 0 uM): 11.32%
Fold Induction of HMOX (Cpd. 0.156 uM, DMF 0 uM): 1.96 fold
% Cells Positive HMOX (Cpd. 0.156 uM, DMF 0.03 uM): 8.51%
Fold Induction of HMOX (Cpd. 0.156 uM, DMF 0.03 uM): 1.46 fold
% Cells Positive HMOX (Cpd. 0.156 uM, DMF 0.1 uM): 18.49%
Fold Induction of HMOX (Cpd. 0.156 uM, DMF 0.1 uM): 1.73 fold
% Cells Positive HMOX (Cpd. 0.156 uM, DMF 0.3 uM): 30.11%
Fold Induction of HMOX (Cpd. 0.156 uM, DMF 0.3 uM): 2.06 fold
% Cells Positive HMOX (Cpd. 0.156 uM, DMF 1 uM): 57.70%
Fold Induction of HMOX (Cpd. 0.156 uM, DMF 1 uM): 2.87 fold
% Cells Positive HMOX (Cpd. 0.156 uM, DMF 3 uM): 79.63%
Fold Induction of HMOX (Cpd. 0.156 uM, DMF 3 uM): 3.63 fold
% Cells Positive HMOX (Cpd. 0.156 uM, DMF 10 uM): 99.72%
Fold Induction of HMOX (Cpd. 0.156 uM, DMF 10 uM): 5.58 fold
% Cells Positive HMOX (Cpd. 0.156 uM, DMF 30 uM): 98.17%
Fold Induction of HMOX (Cpd. 0.156 uM, DMF 30 uM): 4.99 fold
combination effect in terms of the % HMOX positive cells: additive or greater than additive
change of Hill slope of the DMF dose response curve (FIG. 5): reduced

Cn1c(Nc2nc3ccc(C(F)(F)F)cc3s2)nc2cc(C(=O)NCCOCCO)ccc21 [HPP-D, 1-Methyl-2-(6-trifluoromethyl-benzothiazol-2-ylamino)-1H-benzoimidazole-5-carboxylic acid [2-(2-hydroxy-ethoxy)-ethyl]-amide]
Hill slope of DMF dose response curves in Table 2 (Bach1 Inhibitor Conc. 0.019 uM): 2.23
Hill slope of DMF dose response curves in Table 2 (Bach1 Inhibitor Conc. 0.039 uM): 1.69
Hill slope of DMF dose response curves in Table 2 (Bach1 Inhibitor Conc. 0.078 uM): 0.90
Hill slope of DMF dose response curves in Table 2 (Bach1 Inhibitor Conc. 0.156 uM): 0.23
% Cells Positive HMOX (Cpd. 0.019 uM, DMF 0 uM): 19.42%
Fold Induction of HMOX (Cpd. 0.019 uM, DMF 0 uM): 2.08 fold
% Cells Positive HMOX (Cpd. 0.019 uM, DMF 0.03 uM): 4.94%
Fold Induction of HMOX (Cpd. 0.019 uM, DMF 0.03 uM): 1.31 fold
% Cells Positive HMOX (Cpd. 0.019 uM, DMF 0.1 uM): 4.52%
Fold Induction of HMOX (Cpd. 0.019 uM, DMF 0.1 uM): 1.23 fold
% Cells Positive HMOX (Cpd. 0.019 uM, DMF 0.3 uM): 7.63%
Fold Induction of HMOX (Cpd. 0.019 uM, DMF 0.3 uM): 1.44 fold
% Cells Positive HMOX (Cpd. 0.019 uM, DMF 1 uM): 26.41%
Fold Induction of HMOX (Cpd. 0.019 uM, DMF 1 uM): 2.17 fold
% Cells Positive HMOX (Cpd. 0.019 uM, DMF 3 uM): 80.18%
Fold Induction of HMOX (Cpd. 0.019 uM, DMF 3 uM): 3.55 fold
% Cells Positive HMOX (Cpd. 0.019 uM, DMF 10 uM): 96.12%
Fold Induction of HMOX (Cpd. 0.019 uM, DMF 10 uM): 5.12 fold
% Cells Positive HMOX (Cpd. 0.019 uM, DMF 30 uM): 84.02%
Fold Induction of HMOX (Cpd. 0.019 uM, DMF 30 uM): 4.90 fold
% Cells Positive HMOX (Cpd. 0.039 uM, DMF 0 uM): 28.04%
Fold Induction of HMOX (Cpd. 0.039 uM, DMF 0 uM): 2.51 fold
% Cells Positive HMOX (Cpd. 0.039 uM, DMF 0.03 uM): 11.95%
Fold Induction of HMOX (Cpd. 0.039 uM, DMF 0.03 uM): 1.81 fold
% Cells Positive HMOX (Cpd. 0.039 uM, DMF 0.1 uM): 6.75%
Fold Induction of HMOX (Cpd. 0.039 uM, DMF 0.1 uM): 1.52 fold
% Cells Positive HMOX (Cpd. 0.039 uM, DMF 0.3 uM): 18.66%
Fold Induction of HMOX (Cpd. 0.039 uM, DMF 0.3 uM): 1.81 fold
% Cells Positive HMOX (Cpd. 0.039 uM, DMF 1 uM): 38.70%
Fold Induction of HMOX (Cpd. 0.039 uM, DMF 1 uM): 2.60 fold
% Cells Positive HMOX (Cpd. 0.039 uM, DMF 3 uM): 78.65%
Fold Induction of HMOX (Cpd. 0.039 uM, DMF 3 uM): 4.00 fold
% Cells Positive HMOX (Cpd. 0.039 uM, DMF 10 uM): 99.17%
Fold Induction of HMOX (Cpd. 0.039 uM, DMF 10 uM): 5.64 fold
% Cells Positive HMOX (Cpd. 0.039 uM, DMF 30 uM): 91.91%
Fold Induction of HMOX (Cpd. 0.039 uM, DMF 30 uM): 5.52 fold
% Cells Positive HMOX (Cpd. 0.078 uM, DMF 0 uM): 73.95%
Fold Induction of HMOX (Cpd. 0.078 uM, DMF 0 uM): 4.34 fold
% Cells Positive HMOX (Cpd. 0.078 uM, DMF 0.03 uM): 33.51%
Fold Induction of HMOX (Cpd. 0.078 uM, DMF 0.03 uM): 2.35 fold
% Cells Positive HMOX (Cpd. 0.078 uM, DMF 0.1 uM): 44.61%
Fold Induction of HMOX (Cpd. 0.078 uM, DMF 0.1 uM): 2.87 fold
% Cells Positive HMOX (Cpd. 0.078 uM, DMF 0.3 uM): 61.50%
Fold Induction of HMOX (Cpd. 0.078 uM, DMF 0.3 uM): 3.21 fold
% Cells Positive HMOX (Cpd. 0.078 uM, DMF 1 uM): 84.85%
Fold Induction of HMOX (Cpd. 0.078 uM, DMF 1 uM): 3.83 fold
% Cells Positive HMOX (Cpd. 0.078 uM, DMF 3 uM): 90.28%
Fold Induction of HMOX (Cpd. 0.078 uM, DMF 3 uM): 4.20 fold
% Cells Positive HMOX (Cpd. 0.078 uM, DMF 10 uM): 97.73%
Fold Induction of HMOX (Cpd. 0.078 uM, DMF 10 uM): 6.52 fold
% Cells Positive HMOX (Cpd. 0.078 uM, DMF 30 uM): 91.28%
Fold Induction of HMOX (Cpd. 0.078 uM, DMF 30 uM): 4.80 fold
% Cells Positive HMOX (Cpd. 0.156 uM, DMF 0 uM): 96.31%
Fold Induction of HMOX (Cpd. 0.156 uM, DMF 0 uM): 6.46 fold
% Cells Positive HMOX (Cpd. 0.156 uM, DMF 0.03 uM): 92.53%
Fold Induction of HMOX (Cpd. 0.156 uM, DMF 0.03 uM): 5.22 fold
% Cells Positive HMOX (Cpd. 0.156 uM, DMF 0.1 uM): 88.16%
Fold Induction of HMOX (Cpd. 0.156 uM, DMF 0.1 uM): 4.89 fold
% Cells Positive HMOX (Cpd. 0.156 uM, DMF 0.3 uM): 94.48%
Fold Induction of HMOX (Cpd. 0.156 uM, DMF 0.3 uM): 5.17 fold
% Cells Positive HMOX (Cpd. 0.156 uM, DMF 1 uM): 97.74%
Fold Induction of HMOX (Cpd. 0.156 uM, DMF 1 uM): 6.04 fold
% Cells Positive HMOX (Cpd. 0.156 uM, DMF 3 uM): 99.20%
Fold Induction of HMOX (Cpd. 0.156 uM, DMF 3 uM): 7.69 fold
% Cells Positive HMOX (Cpd. 0.156 uM, DMF 10 uM): 100.00%
Fold Induction of HMOX (Cpd. 0.156 uM, DMF 10 uM): 7.50 fold
% Cells Positive HMOX (Cpd. 0.156 uM, DMF 30 uM): 92.22%
Fold Induction of HMOX (Cpd. 0.156 uM, DMF 30 uM): 6.18 fold
combination effect in terms of the % HMOX positive cells: additive or greater than additive
change of Hill slope of the DMF dose response curve (FIG. 5): reduced
